Here are results for eleven compounds from PMC11838007, “Contribution of telacebec to novel drug regimens in a murine tuberculosis model” (Antimicrobial Agents and Chemotherapy, 2024).

Series [1] deals with M. tuberculosis H37Rv. It counts as in vivo, Mycobacterium tuberculosis.
The test system of series [2] is M. tuberculosis H37Rv. Nature of the series: microbe, parasite or virus in culture. Type of series: cell-based.
The test system of series [3] is M. tuberculosis HN878. Put plainly: microbe, parasite or virus in culture. Type of series: cell-based.
Series [4] relates to M. tuberculosis H37Rv. Nature of the series: microbe, parasite or virus in culture. The conditions noted are these: Mycobacterium tuberculosis, read-out: MIC, 7H9 Broth, H37Rv. It counts as cell-based.
In series [5] the test system is M. tuberculosis HN878. Nature of the series: microbe, parasite or virus in culture. It counts as cell-based. This is another data set of the same source.
Series [6] concerns M. tuberculosis H37Rv. The conditions noted are these: in vivo, 25 mg/kg; cited from earlier work.
For series [7] the following is noted: plasma, week 4, Experiment 3, mean ± SD; for Concentration of Telacebec at steady state, 1h: 1 h post-dose; for Concentration of Telacebec at steady state, 5h: 5 h post-dose; for Concentration of Telacebec at steady state, 24h: 24 h post-dose. The procedure:
For S587 and its M3 metabolite, the mean concentrations were compared between mice administered S587 alone and mice administered S587 in combination with T 10 mg/kg (T10), T 50 mg/kg (T50), and T10 plus C. For T, the mean concentrations were compared between mice administered T10 alone and T10 in combination with S587 and S587 + C, as well as between mice administered T50 alone and T50 in combination with S587.
Multidose PK of T and TBAJ-587 in plasma was characterized in infected female BALB/c mice (Charles River Laboratories, Wilmington, MA) receiving oral doses once daily. In week 4 of treatment in Experiment 3, three mice per group per time point were sampled by submandibular bleed at 1, 5, and 24 hours post-dose. Drug concentrations were quantified by a validated high-performance liquid chromatography/mass spectrometry method (Alliance Pharma Inc, Devault, PA).

The subject of the next series is M. tuberculosis. The conditions noted are these: phase 2a study; cited from earlier work.
Series [8] concerns M. tuberculosis H37Rv. Put plainly: Pyrazinamide susceptibility by MGIT. Type of series: cell-based. The conditions noted are these: Mycobacterium tuberculosis, susceptibility determined by MGIT, read-out: MIC, H37Rv (7H9 Broth).
Series [9] has as its system M. tuberculosis HN878. Nature of the series: Pyrazinamide susceptibility by MGIT. Type of series: cell-based. The conditions noted are these: Mycobacterium tuberculosis, susceptibility determined by MGIT, read-out: MIC, HN878 (7H9 Broth).
Where [10] appears, read: Mycobacterium tuberculosis, H37RV; read-out: MIC, 7H11 Agar, H37Rv.
[11] abbreviates: Mycobacterium tuberculosis, HN878; read-out: MIC, 7H11 Agar, HN878.
Where [12] appears, read: Mycobacterium tuberculosis, HN878; read-out: MIC, 7H9 Broth, HN878.

Values after ≈ are worked out from the molar mass of the structure shown. Read-outs that look alike come from different tables or passages of the source. A value given as a limit tells only on which side of the number the result lay.

In the case of `COc1cc([C@](O)(CCN(C)C)[C@@H](c2cc3cc(Br)ccc3nc2OC)c2cc(OC)nc(OC)c2OC)cc(OC)n1` [TBAJ-876], the “reduction of CFU counts over 4 weeks compared to D0” value in the series with M. tuberculosis H37Rv [1] (Experiment 2, S876 6.25 mg/kg, 4 weeks) is given as “more than 3.5 log10”. For the same compound, the “mean (±SD) log10 CFU counts, W4” value in the series on M. tuberculosis H37Rv [1] (Experiment 2, lungs, 4 weeks of treatment, doses mg/kg/dose as subscripts, bid = twice daily, D0 7.51 ± 0.06, lower limit of detection 1.66 log10) is on record as 3.74 ± 0.44 log10 CFU. For the same compound, the values for the MIC in the series on M. tuberculosis H37Rv [2] (setting [10]) and in the series with M. tuberculosis HN878 [3] (setting [11]) were 0.002 to 0.004 µg/mL (≈ 0.00304 to 0.00608 µM) and 0.004 µg/mL (≈ 0.00608 µM), respectively.

As to `CO[C@H]1/C=C/O[C@@]2(C)Oc3c(C)c(O)c4c(O)c(c(/C=N/N5CCN(C)CC5)c(O)c4c3C2=O)NC(=O)/C(C)=C\C=C\[C@H](C)[C@H](O)[C@@H](C)[C@@H](O)[C@@H](C)[C@H](OC(C)=O)[C@@H]1C` [Rifampin], the MIC with M. tuberculosis H37Rv [4] turned out to be 0.25 µg/mL (≈ 0.304 µM); with M. tuberculosis HN878 [5] (Mycobacterium tuberculosis, HN878, read-out: MIC, 7H9 Broth, HN878), 0.25 µg/mL (≈ 0.304 µM).

Turning to `CC(C)/N=c1\cc2n(-c3ccc(Cl)cc3)c3ccccc3nc-2cc1Nc1ccc(Cl)cc1` [Clofazimine, clofazimine], the MIC in the series on M. tuberculosis H37Rv [2] (setting [10]) and with M. tuberculosis HN878 [3] (setting [11]) was 0.25 µg/mL (≈ 0.528 µM) in each case.

For `COc1cc([C@](O)(CCN(C)C)[C@@H](c2cc3cc(Br)ccc3nc2OC)c2cccc(OC)c2F)cc(OC)n1` [TBAJ-587], in the series with M. tuberculosis H37Rv [1] (in vivo), the “mean (±SD) log10 CFU counts, W4” value is given as 3.40 ± 0.47 log10 CFU. Besides, the “reduction of bacterial burden over 4 weeks” value with M. tuberculosis H37Rv [1] (in vivo, 12.5 mg/kg) is recorded as “more than 4 log10”. Further, the MIC in the series with M. tuberculosis H37Rv [2] (Mycobacterium tuberculosis, H37RV, read-out: MIC, 7H11 Agar, H37Rv) stood at 0.008 µg/mL (≈ 0.013 µM); in the series with M. tuberculosis HN878 [3] (Mycobacterium tuberculosis, HN878, read-out: MIC, 7H11 Agar, HN878) it was 0.004 µg/mL (≈ 0.00651 µM). Further, in the series on M. tuberculosis H37Rv [6], the “reduction of lung CFU count over 4 weeks” value is “approximately 5 log10”.

As for `CCc1nc2ccc(Cl)cn2c1C(=O)NCc1ccc(N2CCC(c3ccc(OC(F)(F)F)cc3)CC2)cc1` [Telacebec, telacebec], the “effect of single drug treatment on lung CFU counts compared to D0” value in the series with M. tuberculosis H37Rv [1] (Experiment 3, T at 10 and 50 mg/kg, 4 weeks, no dose-response) is on record as “bacteriostatic”. The “mean (±SD) log10 CFU counts, W4” value in the series with M. tuberculosis H37Rv [1] (Experiment 3, lungs, 4 weeks of treatment, T at 10 mg/kg where given, S587 12.5, C 12.5, Z 150 mg/kg, D0 7.52 ± 0.13) was determined as 7.65 ± 0.05 log10 CFU; in the series on M. tuberculosis H37Rv [1] (Experiment 3, lungs, 4 weeks of treatment, T at 50 mg/kg, S587 12.5 mg/kg, D0 7.52 ± 0.13), 7.70 ± 0.06 log10 CFU. In addition, the “Concentration of Telacebec at steady state, 1h” value in series [7] (T 10 mg/kg) is 1462 ± 435 ng/mL; in [7] (T 50 mg/kg) it was 2642 ± 1857 ng/mL. Also, the “Concentration of Telacebec at steady state, 5h” value amounted to 2265 ± 102 ng/mL in [7] (T 10 mg/kg) and 7310 ± 3990 ng/mL in series [7] (T 50 mg/kg). In addition, the “Concentration of Telacebec at steady state, 24h” value is 921 ± 337 ng/mL in [7] (T 10 mg/kg) and 3008 ± 330 ng/mL in [7] (T 50 mg/kg). Besides, the MIC in the series on M. tuberculosis H37Rv [2] (Mycobacterium tuberculosis, 432 h; parental H37Rv strain; agar proportion method; […]; read-out: MIC) came to 0.008 µg/mL (≈ 0.0144 µM); in the series with M. tuberculosis H37Rv [2] (setting [10]), 0.008 µg/mL (≈ 0.0144 µM); in the series with M. tuberculosis HN878 [3] (setting [11]) it was 0.002 µg/mL (≈ 0.00359 µM). Besides, the “early bactericidal activity in TB patients” value in the series on M. tuberculosis is given as “dose-dependent early bactericidal activity”.

For `COc1nc2ccc(Br)cc2cc1[C@@H](c1ccccc1)[C@@](O)(CCN(C)C)c1cccc2ccccc12` [Bedaquiline, bedaquiline], the MIC in the series on M. tuberculosis H37Rv [2] (setting [10]) is 0.03 µg/mL (≈ 0.054 µM); in the series on M. tuberculosis HN878 [3] (setting [11]), 0.03 µg/mL (≈ 0.054 µM); with M. tuberculosis H37Rv [4], 0.25 µg/mL (≈ 0.45 µM).

For `CC(=O)NC[C@H]1CN(c2ccc(N3CCOCC3)c(F)c2)C(=O)O1` [Linezolid, linezolid], the results for the MIC in the series on M. tuberculosis H37Rv [2] (setting [10]), in the series with M. tuberculosis H37Rv [4] and in the series with M. tuberculosis HN878 [5] (setting [12]) were 0.5 µg/mL (≈ 1.48 µM), 1 µg/mL (≈ 2.96 µM) and 0.5 µg/mL (≈ 1.48 µM), respectively.

On to `COc1c(N2C[C@@H]3CCCN[C@@H]3C2)c(F)cc2c(=O)c(C(=O)O)cn(C3CC3)c12` [Moxifloxacin, moxifloxacin], for which the MIC in the series with M. tuberculosis H37Rv [4] turned out to be 0.5 µg/mL (≈ 1.25 µM); in the series on M. tuberculosis HN878 [5] (setting [12]) it was 0.25 µg/mL (≈ 0.623 µM).

As to `O=[N+]([O-])c1cn2c(n1)OC[C@@H](OCc1ccc(OC(F)(F)F)cc1)C2` [Pretomanid, pretomanid], the MIC stood at 0.06 µg/mL (≈ 0.167 µM) in the series with M. tuberculosis H37Rv [2] (setting [10]), 0.125 µg/mL (≈ 0.348 µM) with M. tuberculosis HN878 [3] (setting [11]), 0.125 µg/mL (≈ 0.348 µM) in the series on M. tuberculosis H37Rv [4] and 0.06 µg/mL (≈ 0.167 µM) in the series with M. tuberculosis HN878 [5] (setting [12]).

Consider `COc1ncnc(Cn2cc(C(=O)NCCO)c3ncc(C)cc32)c1C` [TBA-7371], for which the figures for the MIC in the series with M. tuberculosis H37Rv [2] (setting [10]) and with M. tuberculosis HN878 [3] (setting [11]) were 0.25 µg/mL (≈ 0.703 µM) and 0.5 µg/mL (≈ 1.41 µM), respectively.

On to `NC(=O)c1cnccn1` [Pyrazinamide, pyrazinamide], for which the MIC in the series with M. tuberculosis H37Rv [8] and in the series on M. tuberculosis HN878 [9] was below 100 µg/mL in each case.
